Assay results as given in PMC7865522, “Analyzing Kinase Similarity in Small Molecule and Protein Structural Space to Explore the Limits of Multi-Target Screening” (Molecules, 2021).

Experiments:
PI3K [1] = molecular target: T1, PI3K (Homo sapiens, UniProt P42336); test: Eurofins in vitro kinase inhibition assay (HTRF, PIP3 displacement); assay type: biochemical; design: purchased Eurofins Cerep (contract assay); conditions: compound 20 µM; mean (SD); above 50% significant, 25-50% weak
Procedure: (§1) Kinase inhibition assays for EGFR, ErbB2, PI3K and BRAF were carried out by Eurofins Cerep following the protocols of Weber et al. (EGFR), Quian et al. (ErbB2), Sinnamon et al. (PI3K) and Kupcho et al. (BRAF). Briefly, except for PI3K, compounds were incubated with the respective kinase, ATP, and a substrate analog, and the effect of each compound on phosphorylation was measured. In the case of PI3K, the displacement of biotinylated PIP3 from a PIP3-binding complex by unlabelled PIP3 (produced from PIP2 by PI3K) was measured by Homogeneous Time Resolved Fluorescence (HTRF).
(§2) Finally, inhibition of the respective kinases is calculated as the percentage inhibition of control activity.
(§3) Table S3. Experimental results from the Euroﬁns assay. Inhibition of four kinases (EGFR, PI3K, ErbB2, BRAF) was measured at compound concentrations of 20 µM. Inhibition was calculated as % inhibition of control activity. According to CRO, values above 50% inhibition represent signiﬁcant inhibition, values above 25% weak inhibition effect and values below 25% as well as negative values are usually not signiﬁcant. Results are reported in mean (SD) format. […]
(§4) a Compound interfered with assay readout.

EGFR [2] = molecular target: T2, EGFR (Homo sapiens, UniProt P00533); test: DiscoverX KINOMEscan competition binding assay; conditions: compound 10 µM; lower values = higher affinity; below 35% = significant binding
T2 construct: purchased DiscoverX (KINOMEscan service); host or cells: E. coli BL21-derived host (T7 phage) or HEK-293
Procedure: (§5) Ligand binding experiments for the molecules selected from Profiles 1 and 2 towards nine kinases (EGFR, ErbB2, LCK, CDK2, BRAF, MET, p38α, PI3K and VEGFR2) and for molecules selected from Profiles 3 and 4 towards four kinases (EGFR, ErbB2, BRAF and VEGFR2) were carried out by DiscoverX using the supplied protocol as described in the Supplementary Materials. Briefly, ligand affinity was measured by competition with a resin-bound standard ligand and washed-off kinase concentration was determined via qPCR.
(§6) Summarizing, binding of a compound to a kinase was tested in comparison to a control compound (see Table S2). […]
(§7) 1.1. DiscoverX kinase assay
(§8) For most assays, kinase-tagged T7 phage strains were grown in parallel in 24-well blocks in an E.coli host derived from the BL21 strain. E.coli were grown to log-phase and infected with T7 phage from a frozen stock (multiplicity of infection = 0.4) and incubated with shaking at 32°C until lysis (90-150 minutes). The lysates were centrifuged (6,000 x g) and ﬁltered (0.2µm) to remove cell debris.
(§9) The remaining kinases were produced in HEK-293 cells and subsequently tagged with DNA for qPCR detection. Streptavidin-coated magnetic beads were treated with biotinylated small molecule ligands for 30 minutes at room temperature to generate afﬁnity resins for the kinases. The liganded beads were blocked with excess biotin and washed with blocking buffer (SeaBlock [Pierce], 1% BSA, 0.05% Tween 20, 1 mM DTT) to remove unbound ligands and to reduce non-speciﬁc phage binding. Binding reactions were assembled by combining kinases, liganded afﬁnity beads, and test compounds in 1x binding buffer (20% SeaBlock, 0.17x PBS, 0.05% Tween 20, 6 mM DTT). Test compounds were prepared as 40x stocks in 100% DMSO and directly diluted into the assay. All reactions were performed in polypropylene 384-well plates in a ﬁnal volume of 0.02 ml. The assay plates were incubated at room temperature with shaking for 1 hour and the afﬁnity beads were washed with wash buffer (1x PBS, 0.05% Tween 20). The beads were then re-suspended in elution buffer (1x PBS, 0.05% Tween 20, 0.5 µM non-biotinylated afﬁnity ligand) and incubated at room temperature with shaking for 30 minutes. The kinase concentration in the eluates was measured by qPCR. […]
(§10) Table S2. Experimental % control values from the DiscoverX kinase assay. Compounds were tested against the nine kinases EGFR, ErbB2, LCK, CDK2, BRAF, MET, p38α, PI3K and VEGFR2, unless otherwise stated. Binding of kinase and compound were tested at a compound concentration of 10 µM and in comparison to a control compound. Lower values indicate a higher afﬁnity of the compound to the protein and values below 35% indicate signiﬁcant binding according to information of the CRO. […]
(§11) a Compounds were only tested against four kinases (EGFR, ErbB2, BRAF and VEGFR2). b Compound was selected independently from two docking proﬁles and tested separately during

ErbB2 [3] = molecular target: T3, ErbB2 (Homo sapiens, UniProt P04626); test: DiscoverX KINOMEscan competition binding assay; conditions: compound 10 µM; lower values = higher affinity; below 35% = significant binding
T3 construct: purchased DiscoverX (KINOMEscan service); host or cells: E. coli BL21-derived host (T7 phage) or HEK-293
Procedure: as §5, §6, §7, §8, §9, §10, §11

VEGFR2 = molecular target: T4, VEGFR2 (Homo sapiens, UniProt P35968); test: DiscoverX KINOMEscan competition binding assay; conditions: compound 10 µM; lower values = higher affinity; below 35% = significant binding
T4 construct: purchased DiscoverX (KINOMEscan service); host or cells: E. coli BL21-derived host (T7 phage) or HEK-293
Procedure: as §5, §6, §7, §8, §9, §10, §11

BRAF [4] = molecular target: T5, BRAF (Homo sapiens, UniProt P15056); test: DiscoverX KINOMEscan competition binding assay; conditions: for % control, BRAF (DiscoverX): compound 10 µM, lower values = higher affinity, below 35% = significant binding
T5 construct: purchased DiscoverX (KINOMEscan service); host or cells: E. coli BL21-derived host (T7 phage) or HEK-293
Procedure: as §5, §6, §7, §8, §9, §10, §11

p38α = molecular target: T6, p38α (Homo sapiens, UniProt Q16539); test: DiscoverX KINOMEscan competition binding assay; conditions: compound 10 µM; lower values = higher affinity; below 35% = significant binding
T6 construct: purchased DiscoverX (KINOMEscan service); host or cells: E. coli BL21-derived host (T7 phage) or HEK-293
Procedure: as §5, §6, §7, §8, §9, §10, §11

LCK = molecular target: T7, LCK (Homo sapiens, UniProt P06239); test: DiscoverX KINOMEscan competition binding assay; conditions: compound 10 µM; lower values = higher affinity; below 35% = significant binding
T7 construct: purchased DiscoverX (KINOMEscan service); host or cells: E. coli BL21-derived host (T7 phage) or HEK-293
Procedure: as §5, §6, §7, §8, §9, §10, §11

MET = molecular target: T8, MET (Homo sapiens, UniProt P08581); test: DiscoverX KINOMEscan competition binding assay; conditions: compound 10 µM; lower values = higher affinity; below 35% = significant binding
T8 construct: purchased DiscoverX (KINOMEscan service); host or cells: E. coli BL21-derived host (T7 phage) or HEK-293
Procedure: as §5, §6, §7, §8, §9, §10, §11

CDK2 = molecular target: T9, CDK2 (Homo sapiens, UniProt P24941); test: DiscoverX KINOMEscan competition binding assay; conditions: compound 10 µM; lower values = higher affinity; below 35% = significant binding
T9 construct: purchased DiscoverX (KINOMEscan service); host or cells: E. coli BL21-derived host (T7 phage) or HEK-293
Procedure: as §5, §6, §7, §8, §9, §10, §11

EGFR [5] = molecular target: T2, EGFR; test: Eurofins in vitro kinase inhibition assay; assay type: biochemical; conditions: compound 20 µM; mean (SD); above 50% significant, 25-50% weak
Procedure: as §1, §2, §3, §4

ErbB2 [6] = molecular target: T3, ErbB2; test: Eurofins in vitro kinase inhibition assay; assay type: biochemical; conditions: compound 20 µM; mean (SD); above 50% significant, 25-50% weak
Procedure: as §1, §2, §3, §4

BRAF [7] = molecular target: T5, BRAF; test: Eurofins in vitro kinase inhibition assay; assay type: biochemical; conditions: compound 20 µM; mean (SD); above 50% significant, 25-50% weak
Procedure: as §1, §2, §3, §4

PI3K [8] = molecular target: T1, PI3K; test: DiscoverX KINOMEscan competition binding assay; design: purchased DiscoverX (KINOMEscan service); host or cells: E. coli BL21-derived host (T7 phage) or HEK-293; conditions: compound 10 µM; lower values = higher affinity; below 35% = significant binding
Procedure: as §5, §6, §7, §8, §9, §10, §11

T8 sequence (P08581 25-1390): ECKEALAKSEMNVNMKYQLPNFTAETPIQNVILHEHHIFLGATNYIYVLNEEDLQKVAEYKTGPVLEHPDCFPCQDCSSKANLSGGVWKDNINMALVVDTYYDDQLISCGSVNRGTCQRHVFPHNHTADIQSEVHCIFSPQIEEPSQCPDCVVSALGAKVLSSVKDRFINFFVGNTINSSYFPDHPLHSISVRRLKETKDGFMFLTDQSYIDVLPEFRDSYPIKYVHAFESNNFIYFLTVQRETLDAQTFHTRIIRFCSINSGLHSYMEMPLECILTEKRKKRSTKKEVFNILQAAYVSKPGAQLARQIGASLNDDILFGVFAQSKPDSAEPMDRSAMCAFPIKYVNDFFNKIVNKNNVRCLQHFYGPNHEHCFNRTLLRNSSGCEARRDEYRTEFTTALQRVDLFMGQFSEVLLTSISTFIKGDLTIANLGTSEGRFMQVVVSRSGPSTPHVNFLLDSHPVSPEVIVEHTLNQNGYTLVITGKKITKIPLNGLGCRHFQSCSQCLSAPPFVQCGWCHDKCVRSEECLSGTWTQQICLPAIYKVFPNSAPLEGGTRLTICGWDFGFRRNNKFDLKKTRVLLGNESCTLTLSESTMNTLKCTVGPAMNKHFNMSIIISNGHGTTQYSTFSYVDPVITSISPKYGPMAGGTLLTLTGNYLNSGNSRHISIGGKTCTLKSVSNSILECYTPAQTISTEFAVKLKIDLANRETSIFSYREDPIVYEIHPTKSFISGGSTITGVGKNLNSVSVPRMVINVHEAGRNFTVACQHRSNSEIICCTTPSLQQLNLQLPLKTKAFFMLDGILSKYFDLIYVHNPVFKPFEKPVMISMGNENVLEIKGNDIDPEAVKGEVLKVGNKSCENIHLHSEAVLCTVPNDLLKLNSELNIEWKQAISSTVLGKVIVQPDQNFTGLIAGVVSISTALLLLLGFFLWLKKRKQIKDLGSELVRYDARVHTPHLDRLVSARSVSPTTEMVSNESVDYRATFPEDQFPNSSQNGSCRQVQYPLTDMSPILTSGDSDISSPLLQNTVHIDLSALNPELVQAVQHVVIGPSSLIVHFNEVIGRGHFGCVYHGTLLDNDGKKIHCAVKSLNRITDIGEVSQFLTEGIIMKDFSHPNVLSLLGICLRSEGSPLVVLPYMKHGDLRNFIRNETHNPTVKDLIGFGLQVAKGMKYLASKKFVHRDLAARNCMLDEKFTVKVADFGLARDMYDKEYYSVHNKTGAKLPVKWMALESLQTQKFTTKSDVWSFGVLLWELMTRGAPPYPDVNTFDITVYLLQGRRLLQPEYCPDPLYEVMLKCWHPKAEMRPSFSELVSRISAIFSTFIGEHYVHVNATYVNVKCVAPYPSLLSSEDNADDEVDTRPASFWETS
T5 sequence (P15056 whole entry): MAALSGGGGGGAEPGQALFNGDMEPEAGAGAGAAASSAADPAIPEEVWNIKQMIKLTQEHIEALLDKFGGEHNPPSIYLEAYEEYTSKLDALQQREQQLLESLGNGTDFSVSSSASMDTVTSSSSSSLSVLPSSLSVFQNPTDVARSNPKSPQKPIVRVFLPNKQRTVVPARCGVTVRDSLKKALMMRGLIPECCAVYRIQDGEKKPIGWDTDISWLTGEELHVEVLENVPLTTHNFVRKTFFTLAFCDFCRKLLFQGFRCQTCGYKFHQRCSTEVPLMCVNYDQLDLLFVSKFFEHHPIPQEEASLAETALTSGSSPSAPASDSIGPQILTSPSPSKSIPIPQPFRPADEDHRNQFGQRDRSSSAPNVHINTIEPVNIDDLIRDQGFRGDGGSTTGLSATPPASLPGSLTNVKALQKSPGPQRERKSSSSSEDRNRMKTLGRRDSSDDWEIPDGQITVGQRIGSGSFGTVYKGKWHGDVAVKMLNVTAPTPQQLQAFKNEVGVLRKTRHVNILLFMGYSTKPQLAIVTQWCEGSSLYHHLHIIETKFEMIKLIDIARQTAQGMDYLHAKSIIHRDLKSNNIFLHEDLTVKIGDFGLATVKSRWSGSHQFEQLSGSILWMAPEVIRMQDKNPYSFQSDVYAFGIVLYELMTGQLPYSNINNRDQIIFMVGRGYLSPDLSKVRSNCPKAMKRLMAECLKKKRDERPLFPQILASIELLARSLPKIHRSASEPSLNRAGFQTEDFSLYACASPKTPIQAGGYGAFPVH
T4 sequence (P35968 20-1356): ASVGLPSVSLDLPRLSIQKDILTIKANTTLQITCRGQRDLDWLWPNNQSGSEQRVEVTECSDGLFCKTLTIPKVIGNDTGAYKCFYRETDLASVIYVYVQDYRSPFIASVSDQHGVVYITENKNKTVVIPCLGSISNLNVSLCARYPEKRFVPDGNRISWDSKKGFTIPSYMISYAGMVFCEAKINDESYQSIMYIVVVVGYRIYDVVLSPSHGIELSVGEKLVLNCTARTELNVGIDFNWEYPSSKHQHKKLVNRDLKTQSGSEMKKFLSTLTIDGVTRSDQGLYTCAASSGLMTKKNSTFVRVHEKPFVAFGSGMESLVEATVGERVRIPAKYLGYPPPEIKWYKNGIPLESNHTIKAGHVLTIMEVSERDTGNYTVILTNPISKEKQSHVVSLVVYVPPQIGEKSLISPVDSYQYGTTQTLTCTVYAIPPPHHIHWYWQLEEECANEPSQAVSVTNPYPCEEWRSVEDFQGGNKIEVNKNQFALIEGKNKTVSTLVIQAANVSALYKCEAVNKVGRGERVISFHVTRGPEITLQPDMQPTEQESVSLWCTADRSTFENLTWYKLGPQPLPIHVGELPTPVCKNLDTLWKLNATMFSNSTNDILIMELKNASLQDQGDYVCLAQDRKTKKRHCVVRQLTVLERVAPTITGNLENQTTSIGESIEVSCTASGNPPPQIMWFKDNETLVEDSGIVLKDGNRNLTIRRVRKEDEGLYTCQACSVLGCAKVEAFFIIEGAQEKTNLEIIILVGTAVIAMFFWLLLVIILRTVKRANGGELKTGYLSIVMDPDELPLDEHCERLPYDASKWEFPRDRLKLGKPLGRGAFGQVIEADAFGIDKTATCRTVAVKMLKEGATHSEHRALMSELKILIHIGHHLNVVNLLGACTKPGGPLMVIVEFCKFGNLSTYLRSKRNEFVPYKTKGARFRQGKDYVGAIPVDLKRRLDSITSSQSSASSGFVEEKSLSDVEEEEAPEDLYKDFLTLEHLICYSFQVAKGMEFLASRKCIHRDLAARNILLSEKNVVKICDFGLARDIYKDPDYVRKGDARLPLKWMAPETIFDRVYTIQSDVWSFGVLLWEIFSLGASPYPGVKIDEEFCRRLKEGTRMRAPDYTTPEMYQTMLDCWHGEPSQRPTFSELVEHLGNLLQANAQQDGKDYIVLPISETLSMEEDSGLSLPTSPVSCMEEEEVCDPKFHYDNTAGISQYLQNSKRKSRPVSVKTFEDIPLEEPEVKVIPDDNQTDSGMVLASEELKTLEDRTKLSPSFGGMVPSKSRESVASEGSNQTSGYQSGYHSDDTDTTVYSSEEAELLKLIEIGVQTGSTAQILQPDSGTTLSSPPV
T2 sequence (P00533 25-1210): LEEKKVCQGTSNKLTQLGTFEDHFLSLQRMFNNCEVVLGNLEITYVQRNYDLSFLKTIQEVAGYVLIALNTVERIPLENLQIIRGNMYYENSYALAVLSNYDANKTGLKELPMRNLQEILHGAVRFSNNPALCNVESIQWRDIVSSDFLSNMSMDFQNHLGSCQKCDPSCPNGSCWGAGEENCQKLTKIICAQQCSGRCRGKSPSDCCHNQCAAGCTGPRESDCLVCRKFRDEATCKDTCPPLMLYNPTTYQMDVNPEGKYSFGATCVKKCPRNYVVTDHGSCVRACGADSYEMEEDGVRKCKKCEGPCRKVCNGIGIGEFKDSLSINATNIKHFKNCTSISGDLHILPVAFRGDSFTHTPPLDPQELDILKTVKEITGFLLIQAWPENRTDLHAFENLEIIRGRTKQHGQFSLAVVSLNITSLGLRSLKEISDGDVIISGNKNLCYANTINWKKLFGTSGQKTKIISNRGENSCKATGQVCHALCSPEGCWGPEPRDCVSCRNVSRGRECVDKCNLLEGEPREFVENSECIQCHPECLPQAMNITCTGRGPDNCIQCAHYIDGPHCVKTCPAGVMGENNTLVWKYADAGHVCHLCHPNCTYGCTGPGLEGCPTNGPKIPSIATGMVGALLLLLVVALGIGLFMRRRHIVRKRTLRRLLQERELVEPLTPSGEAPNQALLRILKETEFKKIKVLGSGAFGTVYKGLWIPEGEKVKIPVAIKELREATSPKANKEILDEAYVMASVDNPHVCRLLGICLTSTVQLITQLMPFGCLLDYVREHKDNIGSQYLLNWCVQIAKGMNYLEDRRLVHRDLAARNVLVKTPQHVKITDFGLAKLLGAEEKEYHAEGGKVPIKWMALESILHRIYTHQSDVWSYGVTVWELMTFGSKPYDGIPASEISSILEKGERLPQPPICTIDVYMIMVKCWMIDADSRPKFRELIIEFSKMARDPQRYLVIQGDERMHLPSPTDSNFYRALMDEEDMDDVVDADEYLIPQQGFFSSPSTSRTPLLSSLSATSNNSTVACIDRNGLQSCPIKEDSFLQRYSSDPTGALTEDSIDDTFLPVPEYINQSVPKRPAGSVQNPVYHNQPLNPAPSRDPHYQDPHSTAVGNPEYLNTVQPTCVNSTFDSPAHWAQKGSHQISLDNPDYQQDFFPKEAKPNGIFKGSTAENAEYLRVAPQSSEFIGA
T6 sequence (Q16539 whole entry): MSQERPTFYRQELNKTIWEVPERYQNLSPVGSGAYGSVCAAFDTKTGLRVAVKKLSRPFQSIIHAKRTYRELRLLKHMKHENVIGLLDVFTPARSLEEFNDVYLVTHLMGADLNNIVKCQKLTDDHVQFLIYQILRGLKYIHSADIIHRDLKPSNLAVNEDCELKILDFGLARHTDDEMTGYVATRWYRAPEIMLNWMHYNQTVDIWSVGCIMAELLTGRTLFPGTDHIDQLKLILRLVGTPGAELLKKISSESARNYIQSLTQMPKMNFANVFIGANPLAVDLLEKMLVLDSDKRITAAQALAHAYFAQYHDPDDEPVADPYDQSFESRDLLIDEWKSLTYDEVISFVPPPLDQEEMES

Row | % inhibition of control activity, PI3K (Eurofins) (PI3K [1]) | % control, EGFR (DiscoverX) (EGFR [2]) [% control] | % control, ErbB2 (DiscoverX) (ErbB2 [3]) [% control] | % control, VEGFR2 (DiscoverX) (VEGFR2) [% control] | % control, BRAF (DiscoverX) (BRAF [4]) [% control] | % control, p38α (DiscoverX) (p38α) [% control] | % control, LCK (DiscoverX) (LCK) [% control] | % control, MET (DiscoverX) (MET) [% control] | % control, CDK2 (DiscoverX) (CDK2) [% control] | % inhibition of control activity, EGFR (Eurofins) (EGFR [5]) | % inhibition of control activity, ErbB2 (Eurofins) (ErbB2 [6]) | % inhibition of control activity, BRAF (Eurofins) (BRAF [7]) | % control, PI3K (DiscoverX) (PI3K [8]) [% control] | Structure (SMILES) | % ctrl. activity at 10 µM, BRAF (DiscoverX), printed as symbol (BRAF [4]; 10 µM, Table 3)
1 | 1.4 (0.1) % inhibition | 93 | 100 | 100 | 100 | 91 | 100 | 87 | 100 | 17.3 (0.1) % inhibition | -3.3 (0.5) % inhibition | -19.6 (11.8) % inhibition | 100 | CC(C)n1ccc(=O)nc1SC1CCN(c2ccccc2F)C1=O (stereo not drawn) [DS99367] | 
2 | 1.7 (0.8) % inhibition | 100 | 94 | 100 | 100 | 87 | 100 | 85 | 100 | 4.3 (6.9) % inhibition | -0.6 (1.1) % inhibition | -11.1 (4.9) % inhibition | 100 | O=C(NCC1CC1)Nc1ccc(N2CCOC2=O)cc1 [DS75739] | 
3 |  | 100 | 100 | 100 | 100 | 100 | 99 | 100 | 100 | 9.6 (0.2) % inhibition | -1.7 (0.8) % inhibition | -27.8 (10.8) % inhibition | 73 | COCCCNC(=O)c1nc2c3c4c(sc3ncn2n1)CC[C@H](C)C4 [DS31939] | 
4 | 3.6 (2.3) % inhibition | 92 | 90 | 100 | 83 | 93 | 100 | 100 | 100 | 12.6 (1.9) % inhibition | -1.4 (0.8) % inhibition | -18.5 (1.8) % inhibition | 89 | CCOCCCNC(=O)c1nc2c3c4c(sc3ncn2n1)CC[C@@H](C)C4 [DS82066] | 
5 |  | 100 | 100 | 100 | 99 | 100 | 100 | 99 | 99 | 10.7 (0.4) % inhibition | -7.2 (5.7) % inhibition | -19.7 (2.4) % inhibition | 97 | CCc1nccc(-c2nccn2C(Cn2cccn2)c2ccccc2)n1 (stereo not drawn) [DS23815] | 

Continued, compound first:

Row | Structure (SMILES) | % inhibition of control activity, PI3K (Eurofins) (PI3K [1]) | % control, EGFR (DiscoverX) (EGFR [2]) [% control] | % control, ErbB2 (DiscoverX) (ErbB2 [3]) [% control] | % control, VEGFR2 (DiscoverX) (VEGFR2) [% control] | % control, BRAF (DiscoverX) (BRAF [4]) [% control] | % control, p38α (DiscoverX) (p38α) [% control] | % control, LCK (DiscoverX) (LCK) [% control] | % control, MET (DiscoverX) (MET) [% control] | % control, CDK2 (DiscoverX) (CDK2) [% control] | % inhibition of control activity, EGFR (Eurofins) (EGFR [5]) | % inhibition of control activity, ErbB2 (Eurofins) (ErbB2 [6]) | % inhibition of control activity, BRAF (Eurofins) (BRAF [7]) | % control, PI3K (DiscoverX) (PI3K [8]) [% control] | % ctrl. activity at 10 µM, BRAF (DiscoverX), printed as symbol (BRAF [4]; 10 µM, Table 3)
6 | CCOCC(C)(C)NC(=O)Nc1cc(F)ccc1OC [K001MM006] |  | 96 | 100 | 100 | 100 |  |  |  |  |  |  |  |  | 
7 | Nc1nc(N2CCC[C@H](Cc3nc4ccccc4[nH]3)C2)c2nc[nH]c2n1 [K001MM010] |  | 95 | 90 | 97 | 100 |  |  |  |  |  |  |  |  | 
8 | Cc1cccc(NC(=O)N[C@H](C)[C@H](C)N2CCOCC2)n1 [K001MM007] |  | 90 | 94 | 100 | 87 |  |  |  |  |  |  |  |  | 
9 | COCCNC(=O)NC(C)Cc1ccc(O)cc1 (stereo not drawn) [K001MM004] |  | 100 | 100 | 100 | 100 |  |  |  |  |  |  |  |  | 
10 | Cc1ccc(NC(=O)COC(=O)c2cc(=O)[nH]c3ccccc23)cc1 [K001MM012] |  | 90 | 100 | 91 | 100 |  |  |  |  |  |  |  |  | 
11 | CCCCn1nnnc1CN1CCc2nn(CC)c(=O)cc2C1 [K001MM005] |  | 100 | 100 | 100 | 99 |  |  |  |  |  |  |  |  | 
12 | Cc1cc(COC(=O)c2cnc3c(cnn3Cc3ccccc3)c2)on1 [K001MM013] |  | 100 | 94 | 90 | 100 |  |  |  |  |  |  |  |  | 
13 | CC1Oc2ccc(Nc3ncnc4c3oc3ccccc34)cc2NC1=O (stereo not drawn) [K001MM011] |  |  |  | 99 | 100 |  |  |  |  |  |  |  |  | – ^d (percent control activity ≥ 99%, i.e., no measurable inhibition)
14 | CC(C)OCC(O)CN1CCN(C(=O)c2cccc(Cl)c2)CC1 (stereo not drawn) [K001MM002] |  | 97 | 92 | 100 | 89 |  |  |  |  |  |  |  |  | 
15 | Cc1ccccc1Cn1cnc2c(nnn2-c2ccccc2)c1=O [K001MM003] |  | 99 | 99 | 100 | 95 |  |  |  |  |  |  |  |  | 
